In patent US6319952A, “Compositions and methods for reversibly increasing permeability of biomembranes” (D-Pharm Ltd., priority 1997, dated 2001):

Columns and labels:
[1] = system: bovine brain capillary endothelial cells in co-culture with astrocytes; assay: Transcellular permeability (albumin-FITC clearance), in vitro coculture model of the BBB; format: cell-based; conditions: 0.24 mg/ml
Procedure: 1 hr incubation with the test material and five different concentrations: 0.04; 0.08; 0.16; 0.24; 0.32 mg/ml corresponding to 0.125; 0.25; 0.5; 0.75; 1×10^-3 M, were chosen for this experiment.
Stock solution of DP-BFA was added directly to the coculture medium (upper compartment) in order to obtain a dilution of 1:40.
Permeability studies was carried out on the monolayer of endothelial cells using a transcellular tracer: albumin-FITC (fluorescein isothiocyanate), MW=66500. There is no albumin receptor on endothelial cells. Albumin crossed the monolayer by a non-specific transport.
To obtain a concentration-dependent transport parameter, the clearance principle was used like sucrose or inulin (see paragraph 2.2.).
Albumin-FITC was used on endothelial cells at the concentration of 100 μg/ml in Ringer-Hepes 0.4% albumin.
The fluorescence of each sample was determined at λexcitation of 495 and λemission of 525 using a fluorescence spectrophotometer F-2000 (Hitachi).
In that case, the results are presented as clearance (μl) in function of time (min) and clearance at 180 minutes for each condition.

[2] = Acute intravenous toxicity test in mice; format: in vivo; conditions: mouse, in vivo; intravenous administration to mice
Procedure: (§1) An acute intravenous toxicity test was performed to study the toxicity of the branched fatty acids in mice. The study included mortality and behavioral observations during three days. The rate of mortality is represented in the Table 5. M 3/14 caused mortality at a dose of 175 mg/kg; M3/12 at a dose of 75 mg/kg and M 3/10 at a dose of 100 mg/kg. Death was observed ten minutes after i.v. injection. In sub-lethal doses no significant behavior changes were observed.

[3] = system: mice; assay: Acute intravenous toxicity test in mice; format: in vivo; conditions: i.v.
Procedure: as §1

[4] = system: blood-brain barrier (BBB); assay: Reversibility of effect of M 3/14 on BBB permeability (Evan's Blue absorbance of brain extract); format: in vivo, rat (male Sprague-Dawley); conditions: for Quantity EB: 620 nm, per gram wet weight
Procedure: The experiments were carried out on male Sprague-Dawley rats weighing 250-320 gr. They were anesthetized with Rampun-Imalgen. The right common carotid artery was exposed.
The test compounds were dissolved in 0.1M phosphate buffered physiological saline (pH=7.4) at the following test concentrations: 1.6; 8; 20; 40; 200 and 1000 μg/ml. […] The resulting pH of the test solutions was in the range of 8.0 to 8.5, and contols for the pH effect were performed up to pH 9.
The test compound was infused into the right common carotid artery at a rate of 6 ml/min. for 30 s. The control rats were infused with buffer. Evan's Blue (EB) solution at a concentration of […] (2 g Evan's Blue, 0.9 g NaCl in 100 ml water) was injected intravenously 50 minutes prior to the termination of the experiment.
At the end of the experimental time period the animals were perfused with 100 ml of saline solution through the heart and decapitated. The degree of BBB opening, in terms of extravasation of Evan's Blue albumin, was graded on the basis of visual assessment of the degree of staining of the brain ato the method of Rapoport et al. (Rapoport et al., 1980, Amer. J. Physiol. 258, 421-431), and the results are presented in Tables 1 and 2.
A second set of experiments was designed to determine whether the BBB disruption is reversible or irreversible after M 3/14 injection. The extravasation of Evan's Blue-albumin was evaluated at different time points between 3 h and 72 h after M 3/14 injection in concentrations of 8 and 20 μg/ml.
The experiment was conducted on an average of three individual animals per dose per time point. The brains were removed and extracted in dimethylformamide for […]. at room temp. The extract was centrifuged and the supernatant collected and measured for absorbance at 620 nm. The results are presented per gram wet weight of the tissue.

For CCCCCCCCCCCCCCC(CCC)C(=O)O (centres unmarked) [M 3/14, 2-propylhexadecanoic acid], the non-specific transcellular transport ([1]; 1 hr incubation) was “increase of non-specific transcellular transport”, the activation at 240 µg/mL ([1]; Bos taurus, 1 hour incubation, read-out: increase in permeability of the monolayer for albumin (clearance at 180 minutes)) was 268% and the LD50 at 72 h [2] was 150 to 175 mg/kg. For the same compound, the Mortality ([3]; 50 mg/kg, 5 mg/ml) was 0/3, the Mortality ([3]; 100 mg/kg, 5 mg/ml) was 0/3 and the Mortality ([3]; 150 mg/kg, 10 mg/ml) was 0/3. For the same compound, the Mortality ([3]; 175 mg/kg, 10 mg/ml) was 3/3, the dose causing mortality ([3]; mice, three days) was 175 mg/kg and the “Quantity EB” value ([4]; 8 μg/ml, 3 h) was 0.087 absorbance units. The “Quantity EB” value ([4]; 8 μg/ml, 24 h) was 0.074 absorbance units, the “Quantity EB” value ([4]; 20 μg/ml, 3 h) was 0.129 absorbance units and the “Quantity EB” value ([4]; 20 μg/ml, 24 h) was 0.129 absorbance units. For the same compound, the “Quantity EB” value ([4]; 20 μg/ml, 72 h) was 0.015 absorbance units and the “duration of effect on BBB permeability” value ([4]; depending on the dose used (8 and 20 μg/ml)) was “exceed 24 hours”.
